The text below walks through data of patent US11564920B2, “5-heteroaryl-1H-pyrazol-3-amine derivative” (Sumitomo Pharma Co., Ltd., priority 2020, dated 2023).

Data set [1] deals with CHK1 (Homo sapiens (Human), UniProt O14757). Nature of the data set: CHK1 inhibitory activity test (IMAP TR-FRET). In kind it is biochemical. Particulars: for effect of suppressing CHK1 activity (in words): compared with prexasertib; for inhibition at 0.0001 µM: read-out: CHK1 inhibition % at 0.1 nM. Here is the method:
IMAP TR-FRET Screening Express Kit (R8160) was obtained from Molecular Devices. […] FAM-PKAtide (R7255, Molecular Devices) and FAM-Phospho-PKAtide (R7304, Molecular Devices) were admixed after dilution, and calibration standard systems for phosphorylation levels from 0 to 100% were created. 5 μL of a compound dissolved in a 0.4% DMSO solution was added to a 384 well plate. A compound study group to which 5 μL of each of CHK1, CHK1tide, and ATP was added, and a standard group to which 20 μL of standard was added were created, and subjected to a kinase reaction for 3 hours at 30° C. Subsequently, 60 μL of Binding Reagent (80% Buffer A, 20% Buffer B, 1:600 Binding Reagent, 1:400 Tb-Donor) was added for a binding reaction for 2 hours at room temperature.
In general terms: TR-FRET usually uses a lanthanide donor and a delayed reading to cut background.

Data set [2] deals with ES-2 cells. The data set is described as follows: Cell growth suppression experiment. In kind it is cell-based. Particulars: for IC50: Homo sapiens, 48 h, cultured for 2 days, read-out: IC50 (cell growth suppression, ranking); for cell growth suppression effect (in words): compared with prexasertib. Here is the method:
ES-2 cells were obtained from the American Type Culture Collection (ATCC). These cells were cultured at 37° C. in the presence of 5% CO2 in a 10% fetal bovine serum, […] penicillin/streptomycin containing McCoy's 5a medium.
500 cells were seeded for each well in a 384-well plate, and the evaluated compound was added so that the final concentration of DMSO would be 0.1% to culture the cells for 2 days. After completion of the culture, the cell viability rate was calculated using CellTiter-Glo® 3D Reagent (Promega, G968B).

The target of data set [3] is CYP3A4 (Homo sapiens (Human), UniProt P08684). The data set is described as follows: CYP3A4 MBI and enzyme inactivation clearance evaluation. In kind it is in vitro ADME. Particulars: human liver microsome; for microsomal CLint: liver microsomes, probe midazolam or testosterone; for Factor of change in IC50 value: by pre-incubation with NADPH, MBI action when 2-fold or greater. Here is the method:
The effect and mode of inhibition of the test compound on CYP3A4 were evaluated using a human liver microsome as an enzyme source and midazolam or testosterone as a substrate. […] The IC50 value was calculated from a concentration plot.

For data set [4], the target named is hERG current (Homo sapiens (Human), UniProt Q12809). The data set is described as follows: hERG current blocking test. Conditions: for hERG/CHK1: IC50 of hERG divided by IC50 of CHK1 inhibition of Test Example 1; for IC50: read-out: hERG inhibition IC50, hERG stably expressing CHO cells, Qube384.
Chain of hERG current (Q12809 whole entry): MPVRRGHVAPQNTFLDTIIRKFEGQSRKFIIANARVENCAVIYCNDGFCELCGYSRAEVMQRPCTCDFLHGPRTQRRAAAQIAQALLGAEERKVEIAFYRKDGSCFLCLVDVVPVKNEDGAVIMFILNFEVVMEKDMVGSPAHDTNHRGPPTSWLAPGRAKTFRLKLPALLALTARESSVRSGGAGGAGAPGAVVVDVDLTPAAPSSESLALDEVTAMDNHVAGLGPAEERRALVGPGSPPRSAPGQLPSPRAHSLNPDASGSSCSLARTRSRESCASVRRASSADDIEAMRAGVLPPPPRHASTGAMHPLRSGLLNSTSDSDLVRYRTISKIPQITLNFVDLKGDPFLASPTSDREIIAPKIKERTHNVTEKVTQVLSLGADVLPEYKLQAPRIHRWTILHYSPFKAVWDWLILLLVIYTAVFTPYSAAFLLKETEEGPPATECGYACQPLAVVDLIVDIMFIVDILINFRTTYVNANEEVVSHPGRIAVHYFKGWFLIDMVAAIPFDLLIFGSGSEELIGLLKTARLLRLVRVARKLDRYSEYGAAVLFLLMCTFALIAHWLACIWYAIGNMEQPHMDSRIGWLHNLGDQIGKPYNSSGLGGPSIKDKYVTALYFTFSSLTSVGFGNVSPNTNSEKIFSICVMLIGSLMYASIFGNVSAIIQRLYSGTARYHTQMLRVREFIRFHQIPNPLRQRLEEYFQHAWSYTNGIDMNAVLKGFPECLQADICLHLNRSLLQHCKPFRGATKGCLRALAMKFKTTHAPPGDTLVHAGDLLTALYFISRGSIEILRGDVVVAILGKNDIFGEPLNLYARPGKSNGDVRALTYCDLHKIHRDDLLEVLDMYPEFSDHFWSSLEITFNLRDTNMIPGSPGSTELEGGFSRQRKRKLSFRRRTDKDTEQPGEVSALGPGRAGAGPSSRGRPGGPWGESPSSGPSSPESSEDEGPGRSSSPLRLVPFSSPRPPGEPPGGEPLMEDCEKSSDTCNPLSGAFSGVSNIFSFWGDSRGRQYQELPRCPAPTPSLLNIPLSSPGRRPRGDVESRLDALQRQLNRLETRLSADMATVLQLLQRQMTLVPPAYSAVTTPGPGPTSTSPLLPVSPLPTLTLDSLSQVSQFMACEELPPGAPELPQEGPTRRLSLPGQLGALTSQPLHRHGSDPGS
Procedure: The test compounds were added to cultured hERG (human Ether-a-go-go Related Gene) gene stably expressing CHO cell line cells to achieve 0.27 to 100 μM.

Chain of CHK1 (O14757 whole entry): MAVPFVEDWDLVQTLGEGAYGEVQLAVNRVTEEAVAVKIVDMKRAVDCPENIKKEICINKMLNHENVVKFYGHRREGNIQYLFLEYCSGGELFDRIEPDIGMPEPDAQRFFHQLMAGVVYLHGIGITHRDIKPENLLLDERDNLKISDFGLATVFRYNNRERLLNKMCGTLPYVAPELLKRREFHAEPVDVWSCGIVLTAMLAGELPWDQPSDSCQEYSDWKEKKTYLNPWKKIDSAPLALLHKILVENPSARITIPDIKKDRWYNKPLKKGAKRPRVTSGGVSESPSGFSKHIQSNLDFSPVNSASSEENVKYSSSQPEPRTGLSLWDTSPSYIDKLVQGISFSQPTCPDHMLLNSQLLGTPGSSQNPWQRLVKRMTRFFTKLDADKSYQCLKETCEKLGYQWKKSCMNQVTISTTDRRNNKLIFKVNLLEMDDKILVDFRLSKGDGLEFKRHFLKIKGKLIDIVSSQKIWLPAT
Chain of CYP3A4 (P08684 whole entry): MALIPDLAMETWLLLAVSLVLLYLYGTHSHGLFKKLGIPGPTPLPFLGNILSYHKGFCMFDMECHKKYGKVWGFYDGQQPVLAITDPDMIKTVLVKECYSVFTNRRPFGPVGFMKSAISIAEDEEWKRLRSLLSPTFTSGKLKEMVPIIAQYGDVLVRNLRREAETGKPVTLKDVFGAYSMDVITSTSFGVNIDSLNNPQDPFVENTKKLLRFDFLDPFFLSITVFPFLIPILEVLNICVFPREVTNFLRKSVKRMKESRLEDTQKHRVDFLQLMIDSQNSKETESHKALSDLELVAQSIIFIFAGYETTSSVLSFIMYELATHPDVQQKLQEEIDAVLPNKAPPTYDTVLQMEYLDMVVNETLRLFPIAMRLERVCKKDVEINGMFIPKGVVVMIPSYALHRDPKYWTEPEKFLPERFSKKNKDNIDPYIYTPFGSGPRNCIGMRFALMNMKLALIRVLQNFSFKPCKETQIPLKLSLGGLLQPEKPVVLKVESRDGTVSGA

As to `COc1cncc(OC[C@@H]2CNCCO2)c1-c1cc(Nc2cnc(C#N)cn2)n[nH]1` (stereo in doubt) [Example 12, 5-[(5-{3-methoxy-5-[(morpholin-2-yl)methoxy]pyridin-4-yl}-1H-pyrazol-3-yl)amino]pyrazine-2-carbonitrile], in data set [1], the “effect of suppressing CHK1 activity (in words)” value was “more potent effect of suppressing CHK1 activity than prexasertib” and the inhibition (usually the drop in the measured response relative to a control, in per cent) at 0.0001 µM turned out to be 21%. Further, the IC50 (as a rule, the concentration that gives 50% inhibition) in data set [2] was 0.1 to 0.3 µM. Moreover, in data set [3], the microsomal CLint (in general, a measure of how fast metabolising enzymes remove a compound, apart from limits set by blood flow) stood at 0.287 µL/min/mg. This compound also showed a hERG/CHK1 in data set [4] of 9118.

Take `COc1cncc(OC[C@H]2CNCCO2)c1-c1cc(Nc2cnc(C#N)cn2)n[nH]1` (stereo in doubt) [Example 13, 5-[(5-{3-methoxy-5-[(morpholin-2-yl)methoxy]pyridin-4-yl}-1H-pyrazol-3-yl)amino]pyrazine-2-carbonitrile]: the inhibition at 0.0001 µM in data set [1] was determined as 6%. For the same compound, the IC50 in data set [2] is 0.3 to 1 µM; in data set [4], less than 2.7 µM. Moreover, in data set [3], the microsomal CLint amounted to 0.484 µL/min/mg. In data set [4], the hERG/CHK1 is reported as less than 3649.

As to `COc1ccnc(OCCCN)c1-c1cc(Nc2cnc(C(F)(F)F)cn2)n[nH]1` [Example 16, N-{5-[2-(3-aminopropoxy)-4-methoxypyridin-3-yl]-1H-pyrazol-3-yl}-5-(trifluoromethyl)pyrazin-2-amine], in data set [1], the inhibition at 0.0001 µM was less than 5%. In addition, the IC50 in data set [2] was 0.3 to 1 µM; in data set [4], less than 2.7 µM. Also, the hERG/CHK1 in data set [4] is on record as less than 888.

For `COc1cncc(OC[C@]2(F)CCNC2)c1-c1cc(Nc2cnc(C#N)cn2)n[nH]1` [Example 20, (S)-5-[(5-{3-[(3-fluoropyrrolidin-3-yl)methoxy]-5-methoxypyridin-4-yl}-1H-pyrazol-3-yl)amino]pyrazine-2-carbonitrile], in data set [1], the “effect of suppressing CHK1 activity (in words)” value is reported as “more potent effect of suppressing CHK1 activity than prexasertib” and the inhibition at 0.0001 µM came to 6%. Also, in data set [2], the IC50 was less than 0.03 µM and the “cell growth suppression effect (in words)” value was “excellent cell growth suppression effect that is equivalent to that of prexasertib”. Besides, in data set [3], the microsomal CLint was 1.11 µL/min/mg. In data set [4], this compound yielded a hERG/CHK1 of 11176.

Turning to `COc1cncc(OC[C@@]2(F)CCNC2)c1-c1cc(Nc2cnc(C#N)cn2)n[nH]1` [Example 22, (R)-5-[(5-{3-[(3-fluoropyrrolidin-3-yl)methoxy]-5-methoxypyridin-4-yl}-1H-pyrazol-3-yl)amino]pyrazine-2-carbonitrile], in data set [1], the “effect of suppressing CHK1 activity (in words)” value was “more potent effect of suppressing CHK1 activity than prexasertib” and the inhibition at 0.0001 µM was determined as 22%. For the same compound, in data set [2], the IC50 is less than 0.03 µM and the “cell growth suppression effect (in words)” value was “excellent cell growth suppression effect that is equivalent to that of prexasertib”. This compound also displayed a microsomal CLint in data set [3] of 0.349 µL/min/mg. Also, the hERG/CHK1 in data set [4] is 12500.

Consider `COc1cncc(OCC2(C(F)F)CNC2)c1-c1cc(Nc2cnc(C#N)cn2)n[nH]1` [Example 26, 5-{[5-(3-{[3-(difluoromethyl)azetidin-3-yl]methoxy}-5-methoxypyridin-4-yl)-1H-pyrazol-3-yl]amino}pyrazine-2-carbo nitrile], for which, in data set [1], the “effect of suppressing CHK1 activity (in words)” value is “more potent effect of suppressing CHK1 activity than prexasertib” and the inhibition at 0.0001 µM was 42%. In addition, in data set [2], the IC50 is less than 0.03 µM and the “cell growth suppression effect (in words)” value is listed as “excellent cell growth suppression effect that is equivalent to that of prexasertib”.

`COc1cncc(OC[C@@H](C)CN)c1-c1cc(Nc2cnc(C#N)cn2)n[nH]1` [Example 27]: in data set [1], the inhibition at 0.0001 µM was less than 5%. Besides, the IC50 in data set [2] is less than 0.03 µM.

With `COc1cncc(OC[C@H](C)CN)c1-c1cc(Nc2cnc(C#N)cn2)n[nH]1` [Example 28], the inhibition at 0.0001 µM in data set [1] was less than 5%. Also, in data set [2], the IC50 was less than 0.03 µM.

`COc1cncc(OC[C@@H](F)CN)c1-c1cc(Nc2cnc(C#N)cn2)n[nH]1` [Example 29, 5-[(5-{3-[(2S)-3-amino-2-fluoropropoxy]-5-methoxypyridin-4-yl}-1H-pyrazol-3-yl)amino]pyrazine-2-carbonitrile]: in data set [2], the half-inhibitory concentration (IC50) was less than 0.03 µM and the “cell growth suppression effect (in words)” value was “excellent cell growth suppression effect that is equivalent to that of prexasertib”. In data set [3], the “Factor of change in IC50 value” was “Not Detected” and the microsomal CLint was determined as 0.054 µL/min/mg. In data set [4], the hERG/CHK1 worked out at 18667.

For the compound `COc1cncc(OC[C@H](F)CN)c1-c1cc(Nc2cnc(C#N)cn2)n[nH]1` [Example 30, 5-[(5-{3-[(2R)-3-amino-2-fluoropropoxy]-5-methoxypyridin-4-yl}-1H-pyrazol-3-yl)amino]pyrazine-2-carbonitrile], in data set [1], the “effect of suppressing CHK1 activity (in words)” value is “more potent effect of suppressing CHK1 activity than prexasertib” and the inhibition at 0.0001 µM turned out to be 28%. Besides, in data set [2], the IC50 is less than 0.03 µM and the “cell growth suppression effect (in words)” value is on record as “excellent cell growth suppression effect that is equivalent to that of prexasertib”. In data set [3], the “Factor of change in IC50 value” is reported as “Not Detected”. The hERG/CHK1 in data set [4] was determined as 40000.

Regarding `CNCCCOc1cncc(OC)c1-c1cc(Nc2cnc(C#N)cn2)n[nH]1` [Example 31, 5-[(5-{3-methoxy-5-[3-(methylamino)propoxy]pyridin-4-yl}-1H-pyrazol-3-yl)amino]pyrazine-2-carbonitrile], the inhibition at 0.0001 µM in data set [1] is less than 5%. In addition, in data set [2], the IC50 is less than 0.03 µM and the “cell growth suppression effect (in words)” value is listed as “excellent cell growth suppression effect that is equivalent to that of prexasertib”.

As to `COc1cncc(O[C@H](C)C2CNC2)c1-c1cc(Nc2cnc(C#N)cn2)n[nH]1` [Example 33, 5-[(5-{3-[(1R)-1-(azetidin-3-yl)ethoxy]-5-methoxypyridin-4-yl}-1H-pyrazol-3-yl)amino]pyrazine-2-carbonitrile], in data set [1], the inhibition at 0.0001 µM was less than 5%. Moreover, in data set [2], the IC50 was less than 0.03 µM and the “cell growth suppression effect (in words)” value was “excellent cell growth suppression effect that is equivalent to that of prexasertib”.

Take `COc1cncc(O[C@H](C)C2(O)CNC2)c1-c1cc(Nc2cnc(C#N)cn2)n[nH]1` [Example 34, 5-[(5-{3-[(1R)-1-(3-hydroxyazetidin-3-yl)ethoxy]-5-methoxypyridin-4-yl}-1H-pyrazol-3-yl)amino]pyrazine-2-carbonitrile]: in data set [1], the inhibition at 0.0001 µM was less than 5%. Moreover, in data set [2], the IC50 is greater than 1 µM.

Consider `CN[C@@H]1CC[C@@H](Oc2cncc(OC)c2-c2cc(Nc3cnc(C#N)cn3)n[nH]2)C1` [Example 35, 5-{[5-(3-methoxy-5-{[(1R,3R)-3-(methylamino)cyclopentyl]oxy}pyridin-4-yl)-1H-pyrazol-3-yl]amino}pyrazine-2-carbonitrile], for which, in data set [1], the inhibition at 0.0001 µM is less than 5%. In data set [2], the IC50 is less than 0.03 µM and the “cell growth suppression effect (in words)” value was “excellent cell growth suppression effect that is equivalent to that of prexasertib”.

With `COc1cncc(O[C@H]2C[C@H](N)[C@H]3C[C@H]32)c1-c1cc(Nc2cnc(C#N)cn2)n[nH]1` [Example 36, 5-{[5-(3-{[(1R,2S,4S,5S)-4-aminobicyclo[3.1.0]hexan-2-yl]oxy}-5-methoxypyridin-4-yl)-1H-pyrazol-3-yl]amino}pyrazine-2-carbonitrile], the inhibition at 0.0001 µM in data set [1] was less than 5%. In data set [2], the IC50 is less than 0.03 µM and the “cell growth suppression effect (in words)” value is on record as “excellent cell growth suppression effect that is equivalent to that of prexasertib”.

`COc1ccnc(OCC2(CN)CC2)c1-c1cc(Nc2cnc(C#N)cn2)n[nH]1` [Example 37, 5-{[5-(2-{[1-(aminomethyl)cyclopropyl]methoxy}-4-methoxypyridin-3-yl)-1H-pyrazol-3-yl]amino}pyrazine-2-carbonitrile]: in data set [1], the “effect of suppressing CHK1 activity (in words)” value was “more potent effect of suppressing CHK1 activity than prexasertib” and the inhibition at 0.0001 µM was 18%. In data set [2], the IC50 was less than 0.03 µM and the “cell growth suppression effect (in words)” value was “excellent cell growth suppression effect that is equivalent to that of prexasertib”. In addition, in data set [3], the “Factor of change in IC50 value” is on record as “Not Detected” and the “inhibition of CYP3A4 based on MBI (in words)” value is reported as “do not exhibit inhibition of CYP3A4 based on MBI”. In data set [4], the hERG/CHK1 is less than 8438 and the IC50 was less than 2.7 µM.

As to `COc1nccc(OCC2(CN)CC2)c1-c1cc(Nc2cnc(C#N)cn2)n[nH]1` [Example 38, 5-{[5-(4-{[1-(aminomethyl)cyclopropyl]methoxy}-2-methoxypyridin-3-yl)-1H-pyrazol-3-yl]amino}pyrazine-2-carbonitrile], in data set [1], the inhibition at 0.0001 µM was less than 5%. In addition, in data set [2], the 50% inhibitory concentration (IC50) was less than 0.03 µM and the “cell growth suppression effect (in words)” value is listed as “excellent cell growth suppression effect that is equivalent to that of prexasertib”.
